In patent US11192867B2, “Microbiocidal oxadiazole derivatives” (SYNGENTA PARTICIPATIONS AG, priority 2016, dated 2021):

Columns and labels:
Phakopsora pachyrhizi = test: Fungicidal activity against Phakopsora pachyrhizi / soybean / leaf disc preventative (Asian soybean rust); format: in vivo; conditions: foliar, 200 ppm in the applied formulation, soybean leaf disks, vs untreated control, read-out: disease control
Experimental: Leaf disks or leaf segments of various plant species are cut from plants grown in a greenhouse. The cut leaf disks or segments are placed in multiwell plates (24-well format) onto water agar. The leaf disks are sprayed with a test solution before (preventative) or after (curative) inoculation. Compounds to be tested are prepared as DMSO solutions (max. 10 mg/ml) which are diluted to the appropriate concentration with 0.025% Tween20 just before spraying. The inoculated leaf disks or segments are incubated under defined conditions (temperature, relative humidity, light, etc.) according to the respective test system. A single evaluation of disease level is carried out 3 to 14 days after inoculation, depending on the pathosystem. Percent disease control relative to the untreated check leaf disks or segments is then calculated. Soybean leaf disks are placed on water agar in multiwell plates (24-well format) and sprayed with the formulated test compound diluted in water. One day after application leaf discs are inoculated by spraying a spore suspension on the lower leaf surface. After an incubation period in a climate cabinet of 24-36 hours in darkness at 20° C. and 75% rh leaf disc are kept at 20° C. with 12 hours light/12 hours and 75% rh. The activity of a compound is assessed as percent disease control compared to untreated when an appropriate level of disease damage appears in untreated check leaf disks (12 to 14 days after application). The following compounds at 200 ppm in the applied formulation give at least 80% disease control in this test when compared to untreated control leaf disks under the same conditions, which show extensive disease development.

[1] = system: Glomerella lagenarium (Colletotrichum lagenarium); test: Fungicidal activity against Glomerella lagenarium (Colletotrichum lagenarium) liquid culture / cucumber / preventative (anthracnose); format: cell-based; conditions: Colletotrichum orbiculare, 72 h; 20 ppm in the applied formulation; liquid culture (PDB), growth inhibition measured photometrically 3 to 4 days after application; vs untreated control; read-out: disease control
Experimental: Mycelia fragments or conidia suspensions of a fungus prepared either freshly from liquid cultures of the fungus or from cryogenic storage, are directly mixed into nutrient broth. DMSO solutions of the test compound (max. 10 mg/ml) are diluted with 0.025% Tween20 by a factor of 50 and 10 μl of this solution is pipetted into a microtiter plate (96-well format). The nutrient broth containing the fungal spores/mycelia fragments is then added to give an end concentration of the tested compound. The test plates are incubated in the dark at 24° C. and 96% relative humidity. The inhibition of fungal growth is determined photometrically after 2 to 7 days, depending on the pathosystem, and percent antifungal activity relative to the untreated check is calculated.
Conidia of the fungus from cryogenic storage are directly mixed into nutrient broth (PDB—potato dextrose broth). After placing a (DMSO) solution of test compound into a microtiter plate (96-well format), the nutrient broth containing the fungal spores is added. The test plates are incubated at 24° C. and the inhibition of growth is measured photometrically 3 to 4 days after application.
The following compounds at 20 ppm in the applied formulation give at least 80% disease control in this test when compared to untreated control under the same conditions, which show extensive disease development.

[2] = system: Puccinia recondita f. sp. Tritici; test: Fungicidal activity against Puccinia recondita f. sp. Tritici / wheat / leaf disc preventative (brown rust); format: in vivo; conditions: foliar, 200 ppm in the applied formulation, wheat leaf segments cv. Kanzler, inoculated 1 day after application, vs untreated control, read-out: disease control
Experimental: Leaf disks or leaf segments of various plant species are cut from plants grown in a greenhouse. The cut leaf disks or segments are placed in multiwell plates (24-well format) onto water agar. The leaf disks are sprayed with a test solution before (preventative) or after (curative) inoculation. Compounds to be tested are prepared as DMSO solutions (max. 10 mg/ml) which are diluted to the appropriate concentration with 0.025% Tween20 just before spraying. The inoculated leaf disks or segments are incubated under defined conditions (temperature, relative humidity, light, etc.) according to the respective test system. A single evaluation of disease level is carried out 3 to 14 days after inoculation, depending on the pathosystem. Percent disease control relative to the untreated check leaf disks or segments is then calculated. Wheat leaf segments cv. Kanzler were placed on agar in multiwell plates (24-well format) and sprayed with the formulated test compound diluted in water. The leaf disks were inoculated with a spore suspension of the fungus 1 day after application. The inoculated leaf segments were incubated at 19° C. and 75% relative humidity (rh) under a light regime of 12 hours light/12 hours darkness in a climate cabinet and the activity of a compound was assessed as percent disease control compared to untreated when an appropriate level of disease damage appears in untreated check leaf segments (7 to 9 days after application). The following compounds at 200 ppm in the applied formulation give at least 80% disease control in this test when compared to untreated control leaf disks under the same conditions, which show extensive disease development.

SMILES | pest or weed control at 200 ppm (Phakopsora pachyrhizi) | inhibition of growth at 20 ppm [1] | pest or weed control at 200 ppm [2]
CC(C=NOCc1ccccc1Cl)NC(=O)c1ccc(-c2noc(C(F)(F)F)n2)cc1 (stereo not shown) [Compound 1.22, N-[2-[(2-chlorophenyl)methoxyimino]-1-methyl-ethyl]-4-[5-(trifluoromethyl)-1,2,4-oxadiazol-3-yl]benzamide] | ≥ 80% | ≥ 80% | 
COc1ccccc1CON=CC(C)NC(=O)c1ccc(-c2noc(C(F)(F)F)n2)cc1 (stereo not shown) [Compound 1.23, N-[2-[(2-methoxyphenyl)methoxyimino]-1-methyl-ethyl]-4-[5-(trifluoromethyl)-1,2,4-oxadiazol-3-yl]benzamide] | ≥ 80% |  | 
CC(C=NOCc1ccccc1F)NC(=O)c1ccc(-c2noc(C(F)(F)F)n2)cc1 (stereo not shown) [Compound 1.24, N-[2-[(2-fluorophenyl)methoxyimino]-1-methyl-ethyl]-4-[5-(trifluoromethyl)-1,2,4-oxadiazol-3-yl]benzamide] | ≥ 80% | ≥ 80% | 
CCCON=CC(C)NC(=O)c1ccc(-c2noc(C(F)(F)F)n2)cc1 (stereo not shown) [Compound 1.27, N-(1-methyl-2-propoxyimino-ethyl)-4-[5-(trifluoromethyl)-1,2,4-oxadiazol-3-yl]benzamide] | ≥ 80% | ≥ 80% | 
CC(C=NOCC=C(Cl)Cl)NC(=O)c1ccc(-c2noc(C(F)(F)F)n2)cc1 (stereo not shown) [Compound 1.34, N-[2-(3,3-dichloroallyl-oxyimino)-1-methyl-ethyl]-4-[5-(trifluoromethyl)-1,2,4-oxadiazol-3-yl]benzamide] | ≥ 80% | ≥ 80% | 
CC(C=NOCc1ccccc1)NC(=O)c1ccc(-c2noc(C(F)(F)F)n2)cc1 (stereo not shown) [Compound 1.47, N-(2-benzyloxyimino-1-methyl-ethyl)-4-[5-(trifluoromethyl)-1,2,4-oxadiazol-3-yl]benzamide] | ≥ 80% | ≥ 80% | 
CC(C=NOCC(F)(F)F)NC(=O)c1ccc(-c2noc(C(F)(F)F)n2)cc1 (stereo not shown) [Compound 1.51, N-[1-methyl-2-(2,2,2-trifluoroethoxy-imino)ethyl]-4-[5-(trifluoromethyl)-1,2,4-oxadiazol-3-yl]benzamide] | ≥ 80% | ≥ 80% | 
CC(C=NOCc1ccc(F)cc1)NC(=O)c1ccc(-c2noc(C(F)(F)F)n2)cc1 (stereo not shown) [Compound 1.52, N-[2-[(4-fluorophenyl)methoxyimino]-1-methyl-ethyl]-4-[5-(trifluoromethyl)-1,2,4-oxadiazol-3-yl]benzamide] | ≥ 80% | ≥ 80% | 
CC(C=NOCC1CC1)NC(=O)c1ccc(-c2noc(C(F)(F)F)n2)cc1 (stereo not shown) [Compound 1.57, N-[2-(cyclopropyl-methoxyimino)-1-methyl-ethyl]-4-[5-(trifluoromethyl)-1,2,4-oxadiazol-3-yl]benzamide] | ≥ 80% | ≥ 80% | 
CC(C=NOCc1ccc(Cl)cc1)NC(=O)c1ccc(-c2noc(C(F)(F)F)n2)cc1 (stereo not shown) [Compound 1.59, N-[2-[(4-chlorophenyl)methoxyimino]-1-methyl-ethyl]-4-[5-(trifluoromethyl)-1,2,4-oxadiazol-3-yl]benzamide] | ≥ 80% |  | 
Cc1ccc(CON=CCNC(=O)c2ccc(-c3noc(C(F)(F)F)n3)cc2)cc1 [Compound 1.63, N-[2-(p-tolylmethoxy-imino)ethyl]-4-[5-(trifluoromethyl)-1,2,4-oxadiazol-3-yl]benzamide] | ≥ 80% |  | 
CCCCCCCCCCCCON=CCNC(=O)c1ccc(-c2noc(C(F)(F)F)n2)cc1 [Compound 1.73, N-(2-dodecoxyimino-ethyl)-4-[5-(trifluoromethyl)-1,2,4-oxadiazol-3-yl]benzamide] | ≥ 80% |  | 
O=C(NCC=NOCc1c(Cl)cccc1Cl)c1ccc(-c2noc(C(F)(F)F)n2)cc1 [Compound 1.84, N-[2-[(2,6-dichlorophenyl)methoxyimino]ethyl]-4-[5-(trifluoromethyl)-1,2,4-oxadiazol-3-yl]benzamide] | ≥ 80% |  | 
CCCCON=CCNC(=O)c1ccc(-c2noc(C(F)(F)F)n2)cc1 [Compound 1.85, N-(2-butoxyiminoethyl)-4-[5-(trifluoromethyl)-1,2,4-oxadiazol-3-yl]benzamide] | ≥ 80% | ≥ 80% | 
O=C(NCC=NOCc1ccc(F)cc1)c1ccc(-c2noc(C(F)(F)F)n2)cc1 [Compound 1.96, N-[2-[(4-fluorophenyl)methoxyimino]ethyl]-4-[5-(trifluoromethyl)-1,2,4-oxadiazol-3-yl]benzamide] |  | ≥ 80% | 
O=C(NCC=NOCc1cccc(Cl)c1)c1ccc(-c2noc(C(F)(F)F)n2)cc1 [Compound 1.97, N-[2-[(3-chlorophenyl)methoxyimino]ethyl]-4-[5-(trifluoromethyl)-1,2,4-oxadiazol-3-yl]benzamide] |  |  | ≥ 80%
O=C(NCC=NOCc1ccc(Cl)cc1)c1ccc(-c2noc(C(F)(F)F)n2)cc1 [Compound 1.103, N-[2-[(4-chlorophenyl)methoxyimino]ethyl]-4-[5-(trifluoromethyl)-1,2,4-oxadiazol-3-yl]benzamide] |  |  | ≥ 80%
CC(CNC(=O)c1ccc(-c2noc(C(F)(F)F)n2)cc1)=NOCc1ccc([N+](=O)[O-])cc1 [Compound 1.105, N-[2-[(4-nitrophenyl)methoxyimino]propyl]-4-[5-(trifluoromethyl)-1,2,4-oxadiazol-3-yl]benzamide] |  |  | ≥ 80%
COc1ccc(CON=C(C)CNC(=O)c2ccc(-c3noc(C(F)(F)F)n3)cc2)cc1 [Compound 1.108, N-[2-[(4-methoxyphenyl)methoxyimino]propyl]-4-[5-(trifluoromethyl)-1,2,4-oxadiazol-3-yl]benzamide] |  | ≥ 80% | 
COc1ccccc1CON=C(C)CNC(=O)c1ccc(-c2noc(C(F)(F)F)n2)cc1 [Compound 1.112, N-[2-[(2-methoxyphenyl)methoxyimino]propyl]-4-[5-(trifluoromethyl)-1,2,4-oxadiazol-3-yl]benzamide] |  | ≥ 80% | 
CCCCON=C(C)CNC(=O)c1ccc(-c2noc(C(F)(F)F)n2)cc1 [Compound 1.128, N-(2-butoxyiminopropyl)-4-[5-(trifluoromethyl)-1,2,4-oxadiazol-3-yl]benzamide] | ≥ 80% | ≥ 80% | 
CC(CNC(=O)c1ccc(-c2noc(C(F)(F)F)n2)cc1)=NOCc1ccccc1 [Compound 1.134, N-(2-benzyloxyimino-propyl)-4-[5-(trifluoromethyl)-1,2,4-oxadiazol-3-yl]benzamide] | ≥ 80% | ≥ 80% | 
CC(CNC(=O)c1ccc(-c2noc(C(F)(F)F)n2)cc1)=NOCc1ccc(F)cc1 [Compound 1.140, N-[2-[(4-fluorophenyl)methoxyimino]propyl]-4-[5-(trifluoromethyl)-1,2,4-oxadiazol-3-yl]benzamide] |  | ≥ 80% | 
